Reference: US20070060591A1, “Chemokine receptor binding heterocyclic compounds” (priority 1999, published 2007)
Converted amounts (≈) assume the structure as drawn. Where two headings read alike, the source gives them in different places. Values belong to the compound of their own block, whether it stands above or below them.

Experiments:
[1] = from CCOP(=O)(OCC)N(CCCCCCCNC(=O)CBr)CCNS(=O)(=O)c1ccccc1[N+](=O)[O-]; amine bond; K2CO3; acetonitrile; 0.6 mM; 60.0 °C; 24.0 h
[2] = crosslinker bond, 14-membered ring, Cs2CO3, DMF
HIV-1 BaL = assay: Inhibition of infection of U87.CD4.CCR5 by HIV-1 BaL; type: cell-based; settings: U87.CD4.CCR5 cells
CXCR-4 [3] = biological target: T1, CXCR-4 (Homo sapiens, UniProt P61073); assay: Inhibition of mAb 12G5 binding to CXCR-4 in SUP-T1 cells
T1 construct: endogenous in cells; host or cells: SUP-T1 cells

HIV-1 (HTLV-IIIB) = assay: microbe, parasite or virus in culture; type: cell-based; settings: MT-4 cells
Experimental: (§1) The compounds of the invention were tested in a screen by the MTT method (J. Virol. Methods […] (1988)). MT-4 cells (2.5×10^4/well) were challenged with HIV-1 (HTLV-IIIB) or HIV-2 (LAV-2 ROD) at a concentration of 100 CCID50 and incubated in the presence of various concentrations of the test compounds, which were added immediately after challenge with the virus. After 5 days culture at 37° C. in a CO2 incubator, the number of viable cells was assessed by the MTT (tetrazolium) method. […] The potential therapeutic usefulness was assessed by calculating a Selectivity Index (SI) corresponding to the ratio of CC50 to EC50.

HIV-2 (LAV-2 ROD) = assay: Anti-HIV-2 screen by the MTT method in MT-4 cells; type: cell-based; settings: 100 CCID50, 5 days
Experimental: as §1

in vitro = type: cell-based; settings: human
Experimental: as §1

CXCR-4 [4] = biological target: T1, CXCR-4; assay: Inhibition of signal transduction (Ca2+ flux) induced by SDF-1α binding to CXCR-4 on SUP-T1 cells; type: cell-based; settings: SDF-1α induced; for inhibition at 1 µg/mL: 1 μg/ml, read-out: % Inhibition of Ca2+ flux (conc)
MT-4 cells = assay: in vitro; type: cell-based
Experimental: as §1

T1 sequence (P61073 whole entry): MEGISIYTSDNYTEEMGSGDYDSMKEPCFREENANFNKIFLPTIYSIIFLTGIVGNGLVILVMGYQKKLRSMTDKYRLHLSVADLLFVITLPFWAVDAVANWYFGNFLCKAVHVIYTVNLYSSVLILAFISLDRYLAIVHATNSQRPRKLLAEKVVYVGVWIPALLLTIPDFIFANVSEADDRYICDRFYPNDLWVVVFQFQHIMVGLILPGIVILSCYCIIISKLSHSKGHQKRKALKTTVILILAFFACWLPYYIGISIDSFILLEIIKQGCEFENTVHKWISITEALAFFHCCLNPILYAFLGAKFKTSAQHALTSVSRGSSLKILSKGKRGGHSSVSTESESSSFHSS
Experimental for DBA/1 IFN-γ RKO mice: The control group consisted of ten mice that were injected with collagen as discussed below.
The experiments were performed in 8- to 12-week old mice, but in each experiment, the mutant and wild-type mice were age-matched with a 5 day limit. The male to female ratio was kept between 0.8 and 1.3 in each experimental group.
Native chicken collagen type II (EPC, Owensvillle, Mo.) was dissolved in 0.05 M acetic acid at 2 mg/ml by stirring overnight at 6° C., and emulsified in an equal volume of incomplete (IFA) or complete Freund's adjuvant (CFA) containing 1.5 mg/ml heat killed Mycobacterium butyricum (Difco, Detroit, Mich.). Mice were sensitized with a single 100 μl intradermal injection of the emulsion at the base of the tail. Mice were examined daily for signs of arthritis. The disease severity was recorded following a scoring system for each limb. Score 0: normal; score 1: redness and/or swelling in one joint; score 2: redness and/or swelling in more than one joint; score 3: redness and/or welling in the entire paw; score 4: deformity and/or ankylosis.

IC50 against infection of U87.CD4.CCR5 by HIV-1 BaL (HIV-1 BaL): 8.9 µg/mL
Compound: Clc1cc(CN2CCCNCCNCCCNCC2)cc(Cl)n1 [AMD3451, 1-[2,6-Dichloropyrid-4-yl(methylene)]-1,4,8,11-tetraazacyclotetradecane]

IC50 against infection of U87.CD4.CCR5 by HIV-1 BaL (HIV-1 BaL): 45.4 µg/mL
Compound: c1ncc2ncn(Cc3ccc(CN4CCCNCCNCCCNCC4)cc3)c2n1 [AMD3472, N-[1,4,8,11-Tetraazacyclotetradecanyl-1,4-phenylenebis(methylene)]-purine]

EC50 HIV-1 (IIIB) (HIV-1 (HTLV-IIIB); 100 CCID50, 5 days, MTT): 0.5 µg/mL (≈ 1.32 µM) | EC50 HIV-2 (HIV-2 (LAV-2 ROD)): 2.0 µg/mL (≈ 5.27 µM)
Compound: SCCNCc1ccc(CN2CCCNCCNCCCNCC2)cc1 [AMD3530, N-[1,4,8,11-Tetraazacyclotetradecanyl-1,4-phenylenebis(methylene)]-2-(amino-ethyl)mercaptan]
CC50 (MT-4 cells): 175 µg/mL (≈ 461 µM)

EC50 HIV-1 (IIIB) (HIV-1 (HTLV-IIIB); 100 CCID50, 5 days, MTT): 0.1 µg/mL (≈ 0.235 µM) | EC50 HIV-2 (HIV-2 (LAV-2 ROD)): 6.7 µg/mL (≈ 15.8 µM)
Compound: CN(Cc1ccc(CN2CCCNCCNCCCNCC2)cc1)Cc1ccccn1 [AMD3538, N-[1,4,8,11-Tetraazacyclotetradecanyl-1,4-phenylenebis(methylene)]-N-methyl-2-(aminomethyl)pyridine]
CC50 (MT-4 cells): 209 µg/mL (≈ 492 µM)

IC50 (CXCR-4 [3]): 15.8 nM | inhibition at 1 µg/mL (CXCR-4 [4]): 100%
Compound: c1ccc(CNCc2ccc(CN3CCNCCc4cccc(c4)CCNCC3)cc2)nc1 [AMD7051, N-[7-(4,7,10-Triazabicyclo[13.3.1]heptadeca-1(17),13,15-trienyl)-1,4-phenylenebis(methylene)]-2-(aminomethyl)pyridine]

IC50 (CXCR-4 [3]): > 2250 nM | inhibition at 1 µg/mL (CXCR-4 [4]): 44%
Compound: c1ccc(CNCc2ccc(CN3CCNCCNCCc4cccc(c4)CC3)cc2)nc1 [AMD7058, N-[4-[4,7,10-Triazabicyclo[13.3.1]heptadeca-1(17),13,15-trienyl]-1,4-phenylenebis(methylene)]-2-(aminomethyl)pyridine]

IC50 (CXCR-4 [3]): > 2440 nM | inhibition at 1 µg/mL (CXCR-4 [4]): 36%
Compound: c1ccc(CNCc2ccc(CN3CCCCCCCNCCNCC3)cc2)nc1 [AMD7059, N-[1-(1,4,7-Triazacyclotetra-decanyl)-1,4-phenylenebis(methylene)]-2-(aminomethyl)pyridine]

IC50 (CXCR-4 [3]): 20.2 nM | inhibition at 1 µg/mL (CXCR-4 [4]): 100%
Compound: c1ccc(CNCc2ccc(CN3CCNCCNCCc4cccc(n4)CC3)cc2)nc1 [AMD7063, N-[4-[4,7,10,17-Tetraazabicyclo[13.3.1]heptadeca-1(17),13,15-trienyl]-1,4-phenylenebis(methylene)]-2-(aminomethyl)pyridine]

Inhibition of mAb 12G5 binding IC50 (CXCR-4 [3]): 0.27 µg/mL
Compound: SDF-1α

The next lines start with the compound.

Compound: CCOP(=O)(OCC)N1CCCCCCCNC(=O)CN(S(=O)(=O)c2ccccc2[N+](=O)[O-])CC1
ring closure, yield of all isomers [1]: 90%

Compound: CCOP(=O)(OCC)N1CCN(S(=O)(=O)c2ccccc2[N+](=O)[O-])CCCC(F)(F)CCCN(S(=O)(=O)c2ccccc2[N+](=O)[O-])CC1
ring closure, isolated yield ([2]; from bis-[2-(2-nitrobenzenesulfonylamino)-ethyl]-phosphoramidic acid diethyl ester + 1,7-bis(toluene-4-sulfonic acid)-4,4-difluoro-heptyl-ester, 15.4 mM, 85.0 °C): 19%

Compound: CCOP(=O)(OCC)N1CCN(S(=O)(=O)c2ccccc2[N+](=O)[O-])CCCC(F)CCCN(S(=O)(=O)c2ccccc2[N+](=O)[O-])CC1
ring closure, isolated yield ([2]; from bis-[2-(2-nitro-benzenesulfonylamino)-ethyl]-phosphoramidic acid diethyl ester + 1,7-bis(toluene-4-sulfonic acid)-4-fluoro-heptyl-ester, 15.9 mM, 85.0 °C): 55%

Compound: c1cc(CN2CCCNCCNCCCNCC2)ccc1CN1CCCNCCNCCCNCC1 [AMD3100]
IC50 (HIV-1 BaL; Human immunodeficiency virus 1, BAL, read-out: IC50 against infection of U87.CD4.CCR5 by HIV-1 BaL): > 100 µg/mL | animals demonstrating arthritis (DBA/1 IFN-γ RKO mice; 14 days after treatment, i.v. osmotic pump, 5 mg/ml over 14 days, control 7 of ten): 1 of the 8 | body weight loss of treated animals compared with control animals (DBA/1 IFN-γ RKO mice; collagen-injected mice): did not demonstrate any significant body weight loss | time until the single treated animal developed arthritic pathology (DBA/1 IFN-γ RKO mice; post-treatment): > 20 days

Compound: Clc1ccc(CN2CCCNCCNCCCNCC2)cn1 [AMD3454, 1-[2-Chloropyrid-5-yl(methylene)]-1,4,8,11-tetraazacyclotetradecane]
IC50 against infection of U87.CD4.CCR5 by HIV-1 BaL (HIV-1 BaL): 32.3 µg/mL

Compound: c1ccc(CNCc2ccc(CN3CCCNCCNCCCNCC3)cc2)nc1 [AMD3465, N-[1,4,8,11-Tetraazacyclotetradecanyl-1,4-phenylenebis(methylene)]-2-(amino-methyl)pyridine]
IC50 (CXCR-4 [3]): 7.31 nM | SI HIV-1 (Selectivity Index, ratio of CC50 to EC50) (HIV-1 (HTLV-IIIB); HIV-1 (IIIB)): 3 × 10^4 | EC50 (HIV-1 (HTLV-IIIB); Human immunodeficiency virus 1, IIIB, MT4, 120 h, 100 CCID50, 5 days, MTT): 0.008 µg/mL (≈ 0.0195 µM) | EC50 (HIV-2 (LAV-2 ROD); Human immunodeficiency virus 2, MT4, 120 h): 0.032 µg/mL (≈ 0.0779 µM) | CC50 at 5 days (in vitro): > 250 µg/mL | IC50 (CXCR-4 [4]): 2.44 nM

Compound: c1ccc(CCNCc2ccc(CN3CCCNCCNCCCNCC3)cc2)nc1 [AMD3497, N-[1,4,8,11-Tetraazacyclotetradecanyl-1,4-phenylenebis(methylene)]-2-(amino-ethyl)pyridine]
EC50 HIV-1 (IIIB) (HIV-1 (HTLV-IIIB); 100 CCID50, 5 days, MTT): 1.8 µg/mL (≈ 4.24 µM) | EC50 HIV-2 (HIV-2 (LAV-2 ROD)): 3.8 µg/mL (≈ 8.95 µM) | CC50 (MT-4 cells): >250 µg/mL

Compound: Cc1cnc(CNCc2ccc(CN3CCCNCCNCCCNCC3)cc2)cn1 [AMD3498, N-[1,4,8,11-Tetraazacyclotetradecanyl-1,4-phenylenebis(methylene)]-(2-amino-methyl-5-methyl)pyrazine]
EC50 HIV-1 (IIIB) (HIV-1 (HTLV-IIIB); 100 CCID50, 5 days, MTT): 0.2 µg/mL (≈ 0.47 µM) | EC50 HIV-2 (HIV-2 (LAV-2 ROD)): 7.1 µg/mL (≈ 16.7 µM) | CC50 (MT-4 cells): >250 µg/mL

Compound: c1cc(CNCc2ccc(CN3CCCNCCNCCCNCC3)cc2)ccn1 [AMD3500]
EC50 HIV-1 (IIIB) (HIV-1 (HTLV-IIIB); 100 CCID50, 5 days, MTT): 0.6 µg/mL (≈ 1.46 µM) | EC50 HIV-2 (HIV-2 (LAV-2 ROD)): 10.3 µg/mL (≈ 25.1 µM) | CC50 (MT-4 cells): >250 µg/mL

Compound: c1csc(CNCc2ccc(CN3CCCNCCNCCCNCC3)cc2)c1 [AMD3516, N-[1,4,8,11-Tetraazacyclotetradecanyl-1,4-phenylenebis(methylene)]-2-(amino-methyl)thiophene]
EC50 HIV-1 (IIIB) (HIV-1 (HTLV-IIIB); 100 CCID50, 5 days, MTT): 0.7 µg/mL (≈ 1.68 µM) | EC50 HIV-2 (HIV-2 (LAV-2 ROD)): 9.8 µg/mL (≈ 23.6 µM) | CC50 (MT-4 cells): 158 µg/mL (≈ 380 µM)

Compound: Nc1ccccc1CNCc1ccc(CN2CCCNCCNCCCNCC2)cc1 [AMD3517, N-[1,4,8,11-Tetraazacyclotetradecanyl-1,4-phenylenebis(methylene)]-2-amino-benzylamine]
EC50 HIV-1 (IIIB) (HIV-1 (HTLV-IIIB); 100 CCID50, 5 days, MTT): 0.8 µg/mL (≈ 1.88 µM) | EC50 HIV-2 (HIV-2 (LAV-2 ROD)): 10.6 µg/mL (≈ 25 µM) | CC50 (MT-4 cells): 153 µg/mL (≈ 360 µM)

Compound: c1ccc(N2CCN(Cc3ccc(CN4CCCNCCNCCCNCC4)cc3)CC2)cc1 [AMD3526, 1-[1,4,8,11-Tetraazacyclotetradecanyl-1,4-phenylenebis(methylene)]-4-phenylpiperazine]
IC50 against infection of U87.CD4.CCR5 by HIV-1 BaL (HIV-1 BaL): 82 µg/mL

Compound: c1ccc(CNCc2ccc(CN3CCCNCCNCCCNCC3)cc2)cc1 [AMD3529, N-[1,4,8,11-Tetraazacyclotetradecanyl-1,4-phenylenebis(methylene)]-benzylamine]
EC50 HIV-1 (IIIB) (HIV-1 (HTLV-IIIB); 100 CCID50, 5 days, MTT): 0.4 µg/mL (≈ 0.977 µM) | EC50 HIV-2 (HIV-2 (LAV-2 ROD)): 2.6 µg/mL (≈ 6.35 µM) | CC50 (MT-4 cells): 130 µg/mL (≈ 317 µM)

Compound: c1nc(CCNCc2ccc(CN3CCCNCCNCCCNCC3)cc2)c[nH]1 [AMD3543, N-[1,4,8,11-Tetraazacyclotetradecanyl-1,4-phenylenebis(methylene)]-4-(amino-ethyl)imidazole]
EC50 HIV-1 (IIIB) (HIV-1 (HTLV-IIIB); 100 CCID50, 5 days, MTT): 0.2 µg/mL (≈ 0.484 µM) | EC50 HIV-2 (HIV-2 (LAV-2 ROD)): 1.0 µg/mL (≈ 2.42 µM) | CC50 (MT-4 cells): 239 µg/mL (≈ 578 µM)

Compound: Nc1ccc(CNCc2ccc(CN3CCCNCCNCCCNCC3)cc2)cc1 [AMD3544, N-[1,4,8,11-Tetraazacyclotetradecanyl-1,4-Ihenylenebis(methylene)]-4-amino-benzylamine]
EC50 HIV-1 (IIIB) (HIV-1 (HTLV-IIIB); 100 CCID50, 5 days, MTT): 0.7 µg/mL (≈ 1.65 µM) | EC50 HIV-2 (HIV-2 (LAV-2 ROD)): 3.7 µg/mL (≈ 8.71 µM) | CC50 (MT-4 cells): 222 µg/mL (≈ 523 µM)

Compound: c1ccc(CNCc2ccc(CN3CCNCCCCCCCNCC3)cc2)nc1 [AMD7049, N-[4-(1,4,7-Triazacyclotetra-decanyl)-1,4-phenylenebis(methylene)]-2-(aminomethyl)pyridine]
IC50 (CXCR-4 [3]): 127 nM | inhibition at 1 µg/mL (CXCR-4 [4]): 100%

Compound: c1ccc(CNCc2ccc(CN3CCNCCc4cccc(n4)CCNCC3)cc2)nc1 [AMD7050, N-[7-(4,7,10,17-Tetraazabicyclo[13.3.1]heptadeca-1(17),13,15-trienyl)-1,4-phenylenebis(methylene)]-2-(aminomethyl)pyridine]
IC50 (CXCR-4 [3]): 2.25 nM | inhibition at 1 µg/mL (CXCR-4 [4]): 100%

Compound: bis(3-nitrobenzenesulfonylaminopropyl)ether + Methanesulfonic acid, 5-methanesulfonyloxy-3-(4-{[( [...]
ring closure, isolated yield ([2]; the molecule shown is the open-chain precursor, 6.3 mM, 80.0 °C): 51%

Compound: bis(3-nitrobenzenesulfonylaminopropyl)ether? + N-(diethoxyphosphoryl)-O,O′-bis(2-methylsulfonyl)diethanolamine
ring closure, isolated yield ([2]; the molecule shown is the open-chain precursor, 18.0 mM, 80.0 °C): 55%
